Test systems include 786-0; A498; ACHN; CAKI-1; HCT-15; HOP-92; K562; KM12; LOX IMVI; MOLT-4; Malme-3M; NCI/ADR-RES; PC-3; SF-268; SNB-19; SNB-75; T47D; HCC 2998; HL-60.
Assay in all cases: inhibition of tumour cell growth, NCI panel, 48 h

The structures appear in SMILES notation.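 Step 1: Grow cells in 96-well plates. Step 2: Expose to compound for 48 hours at 5 concentrations. Step 3: Interpolate endpoints linearly; if unreached, use highest concentration. Here, GI50 denotes the concentration required for 50% inhibition of growth.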 Calls of active or inactive are those of the source. Cut-off read from the data, not from the text of the source: active = GI50 up to about 1.1 µM and inactive = higher.

Take `CN(C)Cc1ccc(O)c(CN(C)C)n1`: the GI50 with 786-0 is > 100 µM (inactive); in the assay on A498 it was > 100 µM (inactive); with ACHN it was > 100 µM (inactive); with CAKI-1 it was > 100 µM (inactive); in the assay on HCT-15, over 100 µM; with HOP-92, > 100 µM (inactive). Also, the GI50 with K562, in the assay with KM12, in the assay on LOX IMVI, in the assay with MOLT-4, in the assay with Malme-3M and with NCI/ADR-RES was > 100 µM (inactive) each time. Further, the GI50 with PC-3, with SF-268, with SNB-19, in the assay with SNB-75 and with T47D was > 100 µM (inactive) in each case.
Take `O=c1c2cc3c(=O)n4c(cc(-c5ccccc5)c5cc(Cl)ccc54)nc3cc2nc2cc(-c3ccccc3)c3cc(Cl)ccc3n12`: the GI50 was 64.1 µM (inactive) in the assay with 786-0; > 100 µM (inactive) with A498; 76.6 µM (inactive) with ACHN; > 100 µM (inactive) with CAKI-1; > 100 µM (inactive) in the assay on HCC 2998; over 100 µM in the assay with HCT-15. Moreover, the GI50 in the assay on HOP-92, in the assay with K562, in the assay on KM12, in the assay with LOX IMVI, with MOLT-4 and in the assay on NCI/ADR-RES was > 100 µM (inactive) in each case. Also, the GI50 in the assay with PC-3 was > 100 µM (inactive); in the assay with SF-268 it was > 100 µM (inactive); in the assay on SNB-19 it was 45.6 µM (inactive); in the assay on SNB-75, 36.8 µM (inactive); in the assay on T47D, > 100 µM (inactive).
As for `O=C(c1ccccc1)C1C(c2ccccc2[N+](=O)[O-])N1C1CCCCC1` (stereo not given), the GI50 with 786-0 was 1.99 µM (inactive); in the assay on A498 it was 16.7 µM (inactive); in the assay on ACHN, 1.94 µM (inactive); in the assay with CAKI-1 it was 3.44 µM (inactive); in the assay on HCC 2998 it was 6.79 µM (inactive); with HCT-15 it was 3.52 µM. Besides, the GI50 with HOP-92 was 3.5 µM (inactive); with K562, 2.79 µM (inactive); in the assay on KM12, 11.9 µM (inactive); in the assay on LOX IMVI, 2.1 µM (inactive); with MOLT-4, 2.43 µM (inactive); in the assay with Malme-3M, 12.4 µM (inactive). In addition, the GI50 in the assay with NCI/ADR-RES is 6.05 µM (inactive); in the assay with PC-3 it was 3.95 µM (inactive); in the assay on SF-268 it was 9.2 µM (inactive); in the assay on SNB-19, 16.3 µM (inactive); in the assay on T47D it was 2.51 µM (inactive).
In the case of `COCN(CCC1=CCCCC1)C(=O)OC`, the GI50 was > 100 µM (inactive) with 786-0; > 100 µM (inactive) in the assay with A498; > 100 µM (inactive) in the assay with ACHN; > 100 µM (inactive) in the assay on CAKI-1; > 100 µM (inactive) in the assay on HCC 2998; over 100 µM in the assay with HCT-15. For the same molecule, the GI50 in the assay on HOP-92 is > 100 µM (inactive); in the assay with K562, 61.5 µM (inactive); with KM12, > 100 µM (inactive); in the assay on MOLT-4, > 100 µM (inactive); with Malme-3M it was > 100 µM (inactive); in the assay with NCI/ADR-RES, > 100 µM (inactive). In addition, the GI50 in the assay on PC-3 is > 100 µM (inactive); in the assay with SF-268 it was > 100 µM (inactive); in the assay with SNB-19 it was > 100 µM (inactive); in the assay on SNB-75, > 100 µM (inactive); in the assay with T47D, 89.1 µM (inactive).
As for `COc1ccc(C(=O)N2CCN(c3ccc4[nH]c(=O)oc4c3)CC2)cc1`, the GI50 with 786-0 is > 100 µM (inactive); with ACHN, 69.8 µM (inactive); with HCC 2998, > 100 µM (inactive); with HCT-15, over 100 µM; with HL-60, 39.4 µM (inactive); with HOP-92 it was > 100 µM (inactive). Besides, the GI50 with KM12 is > 100 µM (inactive); in the assay on LOX IMVI it was > 100 µM (inactive); in the assay on MOLT-4, > 100 µM (inactive); in the assay on Malme-3M it was 48.5 µM (inactive); with NCI/ADR-RES, > 100 µM (inactive); in the assay on PC-3 it was > 100 µM (inactive). Also, the GI50 in the assay on SF-268 is > 100 µM (inactive); in the assay with SNB-19, > 100 µM (inactive); in the assay with SNB-75, 62.4 µM (inactive); in the assay with T47D it was > 100 µM (inactive).
As to `Nc1c(Br)cc(-c2cc(Br)c(N)c(Br)c2)cc1Br`, the GI50 with 786-0, in the assay on ACHN, in the assay with CAKI-1, with HCC 2998, in the assay on HL-60 and in the assay with HOP-92 was > 100 µM (inactive) in each case. The GI50 in the assay with K562, in the assay on KM12, in the assay with LOX IMVI, in the assay on MOLT-4, in the assay on Malme-3M and with NCI/ADR-RES was > 100 µM (inactive) each time. The GI50 is > 100 µM (inactive) in the assay on PC-3; > 100 µM (inactive) in the assay on SF-268; > 100 µM (inactive) with SNB-19; 59 µM (inactive) with SNB-75; > 100 µM (inactive) in the assay with T47D.
On to `c1cc2ccc3cc4ncccc4c4ccc(c1)c2c34`, for which the GI50 is 18.8 µM (inactive) in the assay with 786-0; 6.87 µM (inactive) in the assay on ACHN; 18.5 µM (inactive) with CAKI-1; 25.6 µM (inactive) in the assay with HCC 2998; 7.73 µM in the assay on HCT-15; 33.2 µM (inactive) in the assay on HL-60. For the same molecule, the GI50 was 17.4 µM (inactive) in the assay with HOP-92; 59.4 µM (inactive) in the assay with K562; 10.5 µM (inactive) with KM12; 12.1 µM (inactive) in the assay on LOX IMVI; 8.59 µM (inactive) with MOLT-4; 70.8 µM (inactive) in the assay with Malme-3M. Besides, the GI50 in the assay on NCI/ADR-RES is 31.6 µM (inactive); in the assay on PC-3, 33 µM (inactive); in the assay with SF-268, 30.7 µM (inactive); in the assay on SNB-19, 90.8 µM (inactive); with SNB-75, 19.8 µM (inactive); with T47D it was 3.36 µM (inactive).
`Cc1ccc(SCC(OCn2cnc3c(N)ncnc32)[C@H](C)F)cc1` (stereo not given in full): the GI50 in the assay on 786-0 is > 100 µM (inactive); with ACHN it was > 100 µM (inactive); with CAKI-1 it was > 100 µM (inactive); with HCC 2998, > 100 µM (inactive); in the assay with HCT-15, over 100 µM; with HL-60 it was > 100 µM (inactive). Also, the GI50 was 54.5 µM (inactive) in the assay with HOP-92; > 100 µM (inactive) in the assay with KM12; > 100 µM (inactive) with LOX IMVI; > 100 µM (inactive) in the assay with MOLT-4; > 100 µM (inactive) with Malme-3M; 73.1 µM (inactive) in the assay with NCI/ADR-RES. In addition, the GI50 with PC-3, with SF-268, with SNB-19, with SNB-75 and in the assay on T47D was > 100 µM (inactive) each time.
Regarding `C/C(O)=C/C(=O)c1[nH]c(C(=O)O)cc1C1CCN(Cc2ccccc2)C1=O` (stereo not given), the GI50 was 21 µM (inactive) in the assay with 786-0; 41.1 µM (inactive) with A498; 28.6 µM (inactive) in the assay with ACHN; 42.3 µM (inactive) in the assay on CAKI-1; 13.2 µM (inactive) in the assay on HCC 2998; 11 µM in the assay with HCT-15. For the same molecule, the GI50 is 20.8 µM (inactive) with HOP-92; 29.4 µM (inactive) with K562; 29.9 µM (inactive) with KM12; 20 µM (inactive) in the assay with MOLT-4; 20 µM (inactive) with Malme-3M; 12 µM (inactive) in the assay with NCI/ADR-RES. In addition, the GI50 with PC-3 is 32.7 µM (inactive); with SF-268 it was 20 µM (inactive); with SNB-19 it was 22.7 µM (inactive); in the assay on SNB-75, 20.8 µM (inactive); in the assay on T47D, 15.7 µM (inactive).
Turning to `Cc1ccc(S(=O)(=O)N2C3C=CC(C3)[C@@H]2C(Cl)(Cl)Cl)cc1` (stereo not given in full), the GI50 is 10 µM (inactive) in the assay with 786-0; 14.3 µM (inactive) in the assay with ACHN; 13.3 µM (inactive) in the assay on CAKI-1; 7.31 µM (inactive) in the assay with HCC 2998; 19.1 µM with HCT-15; 1.66 µM (inactive) with HL-60. Besides, the GI50 was 10.1 µM (inactive) in the assay with HOP-92; 20.3 µM (inactive) with KM12; 18.5 µM (inactive) with LOX IMVI; 19.3 µM (inactive) with MOLT-4; 18.9 µM (inactive) with Malme-3M; 9.51 µM (inactive) in the assay with NCI/ADR-RES. The GI50 in the assay on PC-3 is 5.06 µM (inactive); with SF-268, 13.2 µM (inactive); with SNB-19, 17.9 µM (inactive); with SNB-75, 18.2 µM (inactive); in the assay on T47D, 10.7 µM (inactive).
Take `Cn1cnc([N+](=O)[O-])c1[Se]c1ncnc2nc[nH]c12`: the GI50 in the assay with 786-0 was 10.4 µM (inactive); in the assay with A498, 3.59 µM (inactive); with ACHN, 17.1 µM (inactive); with CAKI-1 it was 0.925 µM (active); in the assay on HCT-15, 15.6 µM; with HOP-92, 12.2 µM (inactive). Also, the GI50 in the assay with K562 was 4.07 µM (inactive); with KM12, 5.69 µM (inactive); with LOX IMVI, 0.497 µM (active); with MOLT-4, 4.71 µM (inactive); with Malme-3M, 3.72 µM (inactive); with NCI/ADR-RES it was 2.07 µM (inactive). Besides, the GI50 in the assay on PC-3 was 20.6 µM (inactive); in the assay on SF-268, 7.46 µM (inactive); in the assay on SNB-19 it was 24 µM (inactive); with SNB-75, 19.6 µM (inactive); in the assay on T47D, 15.2 µM (inactive).
With `COc1cc2c(c(OC)c1OC)-c1ccc(SC)c(=O)cc1[C@@H](OC(C)=O)CC2`, the GI50 is < 0.01 µM (active) in the assay with 786-0; < 0.01 µM (active) in the assay on ACHN; < 0.01 µM (active) in the assay on CAKI-1; < 0.01 µM (active) in the assay on HCC 2998; under 0.01 µM in the assay with HCT-15; < 0.01 µM (active) in the assay with HL-60. The GI50 is > 100 µM (inactive) in the assay with HOP-92; < 0.01 µM (active) with K562; < 0.01 µM (active) with KM12; < 0.01 µM (active) in the assay on LOX IMVI; < 0.01 µM (active) in the assay with MOLT-4; < 0.01 µM (active) in the assay with Malme-3M. For the same molecule, the GI50 was < 0.01 µM (active) in the assay on NCI/ADR-RES; < 0.01 µM (active) with PC-3; < 0.01 µM (active) with SF-268; < 0.01 µM (active) with SNB-19; < 0.0152 µM (active) in the assay with SNB-75; > 100 µM (inactive) with T47D.

The values above are taken from ChEMBL document CHEMBL1201862, “PubChem BioAssay data set” (2004).
